Experimental data taken from publication PMC11257762, “Psoralen Isolated from the Roots of Dorstenia psilurus Welw. Modulate Th1/Th2 Cytokines and Inflammatory Enzymes in LPS-Stimulated RAW 264.7 Macrophages” (Mediators of Inflammation, 2024).
Converted amounts (≈) assume the structure as drawn. Read-outs that look alike come from different tables or passages of the source. Marks after values point to notes of the source that are not given here. Values belong to the compound of their own block, whether it stands above or below them.

Experiments:
[1] = tested on: NO production in LPS-activated RAW 264.7 macrophages; assay: Inhibition of nitric oxide (NO) production in LPS-activated RAW 264.7 macrophages (Griess reagent); assay type: cell-based, mouse; details: for IC50: Mus musculus
Procedure: The mouse-derived macrophage cell line RAW 264.7, purchased from the American Type Culture Collection (ATCC TIB-71, Rockville, MD, USA), was cultured in DMEM medium supplemented with 10% FCS and 1% penicillin/streptomycin/fungizone (PSF) under conventional cell culture conditions at a temperature of 37°C and a carbon dioxide concentration of 5% in a controlled humid atmosphere. Routine maintenance in culture (passage) was performed following ATCC instructions.
The RAW 264.7 macrophage cells were introduced into 96 well microtiter plates at a density of 2 × 10^5 cells/mL. Subsequently, cells were subjected to activation through incubation in a medium consisting of 1 µg/mL LPS alone, acting as the control. Furthermore, lipopolysaccharide was combined with varying concentrations of samples dissolved in DMSO (concentration ranges were 200–1.56 µg/mL for extracts and fractions and 100–0.78 µM for compounds). […] The quantity of nitric oxide released from macrophages was assessed using Griess reagent as previously described. All experiments for the measurement of nitric oxide inhibition were conducted three times in triplicate.

15-LOX from G. max = biological target: T1, 15-LOX from G. max (Glycine max, UniProt P08170); assay: Soybean LOX inhibition assay (ferrous oxidation-xylenol orange); assay type: biochemical; details: linoleic acid 140 µM, pH 7.4, 25°C, mean ± SD
T1 sequence (P08170 1-839): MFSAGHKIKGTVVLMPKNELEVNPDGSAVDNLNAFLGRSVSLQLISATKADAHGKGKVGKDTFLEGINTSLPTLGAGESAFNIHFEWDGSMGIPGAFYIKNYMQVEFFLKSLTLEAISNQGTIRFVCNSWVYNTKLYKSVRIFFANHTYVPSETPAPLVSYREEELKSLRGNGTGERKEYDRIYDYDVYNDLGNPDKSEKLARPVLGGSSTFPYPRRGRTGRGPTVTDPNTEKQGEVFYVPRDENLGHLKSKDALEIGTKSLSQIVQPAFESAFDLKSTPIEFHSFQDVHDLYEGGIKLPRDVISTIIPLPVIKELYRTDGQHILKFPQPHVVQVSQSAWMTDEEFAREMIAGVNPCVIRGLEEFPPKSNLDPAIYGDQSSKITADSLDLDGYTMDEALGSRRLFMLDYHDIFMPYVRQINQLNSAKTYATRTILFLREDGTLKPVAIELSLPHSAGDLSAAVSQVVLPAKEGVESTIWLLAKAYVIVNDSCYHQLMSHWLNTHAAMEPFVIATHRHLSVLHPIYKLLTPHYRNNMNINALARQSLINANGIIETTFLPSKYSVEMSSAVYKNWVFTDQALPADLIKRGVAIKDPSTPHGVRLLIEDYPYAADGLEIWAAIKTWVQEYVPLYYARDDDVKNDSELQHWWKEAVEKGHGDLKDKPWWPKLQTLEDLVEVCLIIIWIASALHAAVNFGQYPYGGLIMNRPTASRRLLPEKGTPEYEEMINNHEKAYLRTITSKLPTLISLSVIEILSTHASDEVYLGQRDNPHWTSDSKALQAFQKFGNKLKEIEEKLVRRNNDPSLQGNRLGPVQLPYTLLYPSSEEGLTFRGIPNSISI
Procedure: The assay was conducted following a previously described methodology with minor adjustments. The assay is based on the measurement of the formation of the Fe3+/xylenol orange complex on a spectrophotometer at a wavelength of 560 nm. 15-LOX from G. max was incubated with samples or standard inhibitors at a temperature of 25°C for 5 min. The concentration ranges of the samples ranged from 200 to 1.56 µg/mL for extracts and fractions and from 100 to 0.78 µM for compounds. Subsequently, linoleic acid (at a final concentration of 140 µM) in Tris–HCl buffer (at a pH of 7.4 and a concentration of 50 mM), and the mixture was incubated at a temperature of 25°C for 20 min in the absence of light. The assay was concluded by adding 100 µL of FOX reagent, which consisted of sulfuric acid (at a concentration of 30 mM), xylenol orange (at a concentration of 100 µM), and iron (II) sulfate (at a concentration of 100 µM) in a methanol/water mixture (at a ratio of 9 : 1). For control, only the LOX solution and buffer were pipetted into the wells. The blanks (background) contained the LOX enzyme during incubation, but the substrate (linoleic acid) was added after the addition of the FOX reagent. […] The percentage inhibition was calculated using the following formula: % inhibition = ((Acontrol–Ablank)−(Asample−Ablank)/(Acontrol−Ablank)) ×100. Here, Acontrol represents the absorbance of the control well, Ablank represents the absorbance of the blank well, and Asample represents the absorbance of the sample well.

[2] = tested on: NO production in LPS-stimulated RAW 264.7 murine macrophages; parameters: method as in Choi et al. [47]; details: isolated from Trachelospermum jasminoides, ref Choi et al. [47]; cited from earlier work
COX-1 = biological target: T2, COX-1 (Mus musculus, UniProt P22437); assay: Fluorometric COX activity assay in LPS-stimulated RAW 264.7 cells, COX-1; assay type: cell-based; details: LPS 0.1 µg/mL, 24 hr, untreated control 95.19 µU/mg
T2 construct: endogenous in cells; host or cells: RAW 264.7 macrophages, LPS-stimulated
T2 sequence (P22437 27-602): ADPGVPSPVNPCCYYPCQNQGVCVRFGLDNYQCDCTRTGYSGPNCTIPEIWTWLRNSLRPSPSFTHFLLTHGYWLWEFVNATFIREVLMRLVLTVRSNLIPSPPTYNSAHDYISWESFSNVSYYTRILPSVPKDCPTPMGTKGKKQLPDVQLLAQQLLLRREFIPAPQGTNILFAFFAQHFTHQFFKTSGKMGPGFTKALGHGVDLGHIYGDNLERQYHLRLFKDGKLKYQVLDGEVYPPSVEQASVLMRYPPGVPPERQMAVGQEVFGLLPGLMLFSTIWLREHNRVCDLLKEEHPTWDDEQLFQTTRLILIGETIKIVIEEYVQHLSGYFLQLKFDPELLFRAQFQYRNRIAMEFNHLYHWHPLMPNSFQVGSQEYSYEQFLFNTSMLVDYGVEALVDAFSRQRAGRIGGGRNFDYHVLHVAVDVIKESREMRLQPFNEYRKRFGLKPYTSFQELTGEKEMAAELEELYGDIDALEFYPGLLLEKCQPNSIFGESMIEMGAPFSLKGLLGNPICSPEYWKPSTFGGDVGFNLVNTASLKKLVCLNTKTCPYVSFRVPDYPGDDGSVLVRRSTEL
Procedure: (§1) Evaluation of COX-1 and COX-2 enzyme activity was performed using the fluorometric COX activity assay kit provided by Biovision. RAW 264.7 cells were cultured at a density of 2 × 10^5 cells/mL in a 48-well microplate and allowed to adhere for a period of 24 hr. Subsequently, cells were treated with LPS at a concentration of 0.1 µg/mL and psoralen at concentrations of 5, 20, and 50 µM. The cyclooxygenase enzyme activity assay was performed after a 24 hr incubation period. To initiate the assay, cells were removed using TNE buffer containing Tris (40 mM), NaCl (150 mM), and EDTA (1 mM), followed by a washing step using 1x PBS. Cells were then resuspended in 1 mL of 1x PBS, transferred to a 1.5 mL tube, and subjected to centrifugation at 500x g for 3 min. The resulting pellet was resuspended in 0.5 mL of lysis buffer containing a protease inhibitor cocktail, followed by vortexing and incubation at 4°C for 5 min. Subsequently, the cell lysate was centrifuged at 12,000 x g for 3 min, and the supernatant was collected for the COX activity assay. The fluorometric cyclooxygenase activity assay kit provided by Biovision was utilized according to the manufacturer's instructions to assess COX activity. This assay incorporates specific inhibitors for COX-1 and COX-2 enzymes, allowing differentiation of their respective activities and those of other peroxidases.

COX-2 = biological target: T3, COX-2 (Mus musculus, UniProt Q05769); assay: Fluorometric COX activity assay in LPS-stimulated RAW 264.7 cells, COX-2; assay type: cell-based; details: LPS 0.1 µg/mL, 24 hr, untreated control 113.81 µU/mg
T3 construct: the supernatant was collected for the COX activity assay; endogenous in cells; host or cells: RAW 264.7 macrophages, LPS-stimulated
T3 sequence (Q05769 18-604): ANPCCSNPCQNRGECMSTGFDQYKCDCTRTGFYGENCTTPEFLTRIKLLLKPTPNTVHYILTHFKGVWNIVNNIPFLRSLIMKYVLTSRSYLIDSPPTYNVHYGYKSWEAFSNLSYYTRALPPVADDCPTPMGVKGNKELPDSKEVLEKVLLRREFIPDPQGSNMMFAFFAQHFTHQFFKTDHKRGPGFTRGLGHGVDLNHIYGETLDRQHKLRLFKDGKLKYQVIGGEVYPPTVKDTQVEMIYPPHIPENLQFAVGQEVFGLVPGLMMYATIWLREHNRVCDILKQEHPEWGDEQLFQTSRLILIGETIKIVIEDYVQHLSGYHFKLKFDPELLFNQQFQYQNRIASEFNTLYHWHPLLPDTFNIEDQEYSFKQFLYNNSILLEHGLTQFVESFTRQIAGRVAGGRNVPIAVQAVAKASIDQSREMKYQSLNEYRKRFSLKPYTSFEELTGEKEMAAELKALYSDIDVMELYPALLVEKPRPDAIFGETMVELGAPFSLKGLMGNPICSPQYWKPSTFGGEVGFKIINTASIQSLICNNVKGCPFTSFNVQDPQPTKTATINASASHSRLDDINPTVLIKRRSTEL
Procedure: as §1

IFN-γ = assay: Th1/Th2 cytokine measurement (cytometric bead array) in LPS-stimulated RAW 264.7 macrophages, IFN-γ; assay type: cell-based, mouse; details: 50 μM, 24 hr, LPS-induced RAW 264.7; reduced from 1.12 pg/mL
Procedure: (§2) RAW 264.7 cells were cultured at a concentration of 2 × 10^5 cells/mL in a 48-well microplate and allowed to adhere for 24 hr. Subsequently, they were subjected to lipopolysaccharide (LPS) treatment at a concentration of 0.1 µg/mL, along with psoralen at concentrations of 5, 20, and 50 µM. […] Following an incubation period of 24 hr, the supernatant was collected, and the levels of pro-inflammatory Th1 cytokines (IFN-γ, TNF-α, and IL-2), as well as anti-inflammatory Th2 cytokines (IL-4, IL-6, and IL-10) were quantified. The experimental protocol adhered to the manufacturer's guidelines and utilized the BD TM cytometric beads array human Th1/Th2 cytokine kit (BD-Biosciences). Data acquisition was performed using a BD LSR FortessaTM cell analyzer flow cytometer.

TNF-α = assay: Th1/Th2 cytokine measurement (cytometric bead array) in LPS-stimulated RAW 264.7 macrophages, TNF-α; assay type: cell-based, mouse; details: 50 μM, 24 hr, LPS-induced RAW 264.7; reduced from 4,418.86 pg/mL
Procedure: as §2

IL-2 = assay: Th1/Th2 cytokine measurement (cytometric bead array) in LPS-stimulated RAW 264.7 macrophages, IL-2; assay type: cell-based, mouse; details: 50 μM, 24 hr, LPS-induced RAW 264.7; reduced from 1.032 pg/mL
Procedure: as §2

IL-4 = assay: Th1/Th2 cytokine measurement (cytometric bead array) in LPS-stimulated RAW 264.7 macrophages, IL-4; assay type: cell-based, mouse; details: 50 μM, 24 hr, LPS-induced RAW 264.7; increased from 0.81 pg/mL
Procedure: as §2

IL-6 = assay: Th1/Th2 cytokine measurement (cytometric bead array) in LPS-stimulated RAW 264.7 macrophages, IL-6; assay type: cell-based, mouse; details: 50 μM, 24 hr, LPS-induced RAW 264.7; increased from 156.96 pg/mL
Procedure: as §2

IL-10 = assay: Th1/Th2 cytokine measurement (cytometric bead array) in LPS-stimulated RAW 264.7 macrophages, IL-10; assay type: cell-based, mouse; details: 50 μM, 24 hr, LPS-induced RAW 264.7; increased from 0.857 pg/mL
Procedure: as §2

[3] = RAW264.7, LPS 1 µg/mL activated RAW 264.7 macrophage cells, mean ± SD, read-out: NO inhibition IC50

Compound: CC[C@H](CC[C@@H](C)[C@H]1CC[C@H]2[C@@H]3CC=C4C[C@@H](O[C@@H]5O[C@H](CO)[C@@H](O)[C@H](O)[C@H]5O)CC[C@]4(C)[C@H]3CC[C@]12C)C(C)C [(3), β-sitosterol glucoside]
- IC50 [1, 3]: 26.1 ± 3.01 µg/mL (≈ 45.3 µM)
- IC50 (15-LOX from G. max): 25.3 µM
- Reduction of NO production [2]: 72.8%

- 15-LOX inhibition IC50 (15-LOX from G. max): 35.57 ± 2.35^j μg/mL
Compound: octadecanyl-3[4-hydroxyphenyl]-prop-2-enoate [(2)]
- NO inhibition IC50 ([1]; LPS 1 µg/mL activated RAW 264.7 macrophage cells, mean ± SD): 39.41 ± 2.29^g μg/mL

- IC50 (15-LOX from G. max): 18.4 µM
- COX-1 activity (COX-1; psoralen 5 μM): 44.35 µU/mg
- COX-1 activity (COX-1; psoralen 20 μM): 31.25 µU/mg
- COX-1 activity (COX-1; psoralen 50 μM): 22.73 µU/mg
- COX-2 activity (COX-2; psoralen 5 μM): 88.33 µU/mg
- COX-2 activity (COX-2; psoralen 20 μM): 58.1 µU/mg
- COX-2 activity (COX-2; psoralen 50 μM): 43.84 µU/mg
Compound: O=c1ccc2cc3ccoc3cc2o1 [(1), psoralen]
- IC50 [1, 3]: 1.19 ± 0.45 µg/mL (≈ 6.39 µM)
- IFN-γ level (IFN-γ): 0.56 pg/mL
- TNF-α level (TNF-α): 1,032.66 pg/mL
- IL-2 level (IL-2): 0.551 pg/mL
- IL-4 level (IL-4): 2.22 pg/mL
- IL-6 level (IL-6): 255.31 pg/mL
- IL-10 level (IL-10): 1.122 pg/mL

Compound: COc1ccc2c(c1)c(CC(=O)O)c(C)n2C(=O)c1ccc(Cl)cc1 [Indomethacin, indomethacin, reference compound]
- IC50 ([1]; RAW264.7, read-out: NO inhibition IC50): 3.79 ± 0.88 µg/mL (≈ 10.6 µM)
